# Where “and” joins values, the source holds several entries; their conditions need not be identical. Equal entries are not always repeated.
# Biological target: PfCRT^Dd2 (Plasmodium falciparum, UniProt Q9N623, A220S/I356T/K76T/M74I/N326S/N75E/Q271E/R371I)
# Test: Drug uptake assay, X. laevis oocytes expressing PfCRT^Dd2
# Assay type: cell-based
# Conditions: for v-1 pH 4.5 / v-1 pH 5.0 / v-1 pH 5.5 / v-1 pH 6.0: Lineweaver-Burk
# Experimental: Oocytes were obtained as described previously. Briefly, adult (>2 years old) female X. laevis frogs (NASCO) were anesthetized in a cooled solution of ethyl 3-amino benzoate methanesulfonate (0.1%, w/v), followed by a surgical removal of parts of the ovary. The ovary lobes were carefully dissected and small pieces of oocytes were incubated in Ca^2+-free ND96 buffer (96 mM NaCl, 2 mM KCl, 1 mM MgCl2 buffered with 5 mM HEPES/NaOH, pH 7.5) supplemented with collagenase D (0.1%, w/v; Roche), BSA (0.5%, w/v), and 9 mm Na2HPO4 at 18 °C for 14-16 h while gentle shaking. After incubation, the oocytes were carefully washed several times with ND96 buffer (96 mM NaCl, 2 mM KCl, 1.8 mM CaCl2, 1 mM MgCl2 buffered with 5 mM HEPES/NaOH, pH 7.5) supplemented with 100 mg l^−1 gentamycin). Defolliculated and healthy-looking stage V-VI oocytes were manually selected for RNA microinjection. The RNA was generated as following: The codon-optimized sequences of PfCRT variants were cloned into the pSP64T expression vector. After vector linearization using the restriction endonucleases BamHI or SalI (New England Biolabs), transcription was performed using the in vitro SP6 mMessage mMachine Kit (Ambion)[34]. The obtained RNA was kept at −80 °C and diluted with nuclease-free water to a concentration of 0.6 μg μl^−1. Precision-bore glass capillary tubes (3.5-inch glass capillaries; Drummond Scientific Co.) were pulled on a vertical puller (P-87 Flaming/Brown micropipette puller, Sutter Instrument Co.), graduated, and placed on a microinjector (Nanoject II Auto-Nanoliter Injector, Drummond Scientific Co.). 50 nl of nuclease-free water alone (control oocytes) or 50 nl of 0.6 μg μl^−1 RNA were injected under stereomicroscopic control. Injected oocytes were incubated for 46–72 h at 18 °C with twice-daily buffer changes before usage in experiments.
# Drug uptake assays were performed as described previously[21],[22],[24],[34]. […] The direction of radio-labeled drug transport is here from the mostly acidic extracellular solution (pH 4.5 or 6.0, as indicated) into the oocyte cytosol (pH ∼ 7.2), which corresponds to the efflux of drug from the acidic digestive vacuole (pH 5.2) into the parasite cytoplasm (pH 7.2). The topology of PfCRT in the oolemma is such that both the N- and C-terminus face the extracellular milieu[3],[22]. In the parasite, the N- and C-terminus face the lumen of the digestive vacuole. […] For determination of the amount of drug uptake for each oocyte, the reaction medium was removed and the oocytes were washed three times with 2 ml of ice-cold ND96 buffer. Each oocyte was individually transferred to a scintillation vial containing 5% sodium dodecyl sulfate (200 μl) for lysis. […] Oocytes that were injected with water instead of RNA were analyzed in parallel, representing the uptake of a drug by diffusion and/or endogenous permeation pathways. The resulting value represents the “background“ level of drug accumulation in oocytes (in-depth discussion in[22]). The specific PfCRT-mediated uptake was determined by subtracting the corresponding background value measured in water-injected oocytes from that of PfCRT-expressing oocytes. In all cases, at least three separate experiments were performed on oocytes from different frogs (biological replicate), and for each condition in an experiment, measurements were made from 10 oocytes per treatment. For pH 5.5, 6.0, and 6.5, ND96 was buffered with 5 mM MES/Tris base. For pH 4.5, 5 mM Homo-Pipes was used as a buffer and 5 mM HEPES for uptake at pH 7.0.
# Sequence of PfCRT^Dd2 (Q9N623 whole entry A220S/I356T/K76T/M74I/N326S/N75E/Q271E/R371I): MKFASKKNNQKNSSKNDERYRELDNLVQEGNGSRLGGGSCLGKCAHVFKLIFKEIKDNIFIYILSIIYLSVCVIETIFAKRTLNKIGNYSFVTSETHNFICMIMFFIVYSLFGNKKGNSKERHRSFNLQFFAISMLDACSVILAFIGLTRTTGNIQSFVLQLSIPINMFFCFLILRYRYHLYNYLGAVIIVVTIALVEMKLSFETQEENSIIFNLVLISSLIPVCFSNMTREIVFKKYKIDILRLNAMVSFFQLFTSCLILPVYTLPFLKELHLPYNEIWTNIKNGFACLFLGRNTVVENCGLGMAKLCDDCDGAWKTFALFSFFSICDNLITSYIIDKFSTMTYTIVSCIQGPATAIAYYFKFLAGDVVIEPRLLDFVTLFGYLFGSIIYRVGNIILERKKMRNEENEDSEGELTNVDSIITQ
structure (smiles),measurement,setting,value
"CCN(CC)CCCC(C)Nc1ccnc2cc(Cl)ccc12 (stereo not shown) [CQ, chloroquine]",PfCRTDd2 transport activity 10 µM CQ pH 4.5,"10 µM CQ, pH 4.5, individual replicates (Fig 4a)",0.37 pmol oocyte-1 h-1 and 0.31 pmol oocyte-1 h-1 and 0.76 pmol oocyte-1 h-1 and 0.49 pmol oocyte-1 h-1
same,PfCRTDd2 transport activity,"10 µM CQ, pH 5.0, 60 min",0.54 pmol oocyte-1 h-1
same,PfCRTDd2 transport activity 10 µM CQ pH 5.0,"10 µM CQ, pH 5.0, individual replicates (Fig 4a)",0.58 pmol oocyte-1 h-1 and 0.59 pmol oocyte-1 h-1 and 0.45 pmol oocyte-1 h-1
same,PfCRTDd2 transport activity,"10 µM CQ, pH 5.5, 60 min",0.69 pmol oocyte-1 h-1
same,PfCRTDd2 transport activity 10 µM CQ pH 5.5,"10 µM CQ, pH 5.5, individual replicates (Fig 4a)",0.67 pmol oocyte-1 h-1 and 0.82 pmol oocyte-1 h-1 and 0.59 pmol oocyte-1 h-1 and 0.68 pmol oocyte-1 h-1
same,PfCRTDd2 transport activity,"10 µM CQ, pH 6.0, 60 min",0.94 pmol oocyte-1 h-1 and 0.95 pmol oocyte-1 h-1 and 0.80 pmol oocyte-1 h-1 and 1.08 pmol oocyte-1 h-1
same,PfCRTDd2 transport activity 10 µM CQ pH 6.0,"10 µM CQ, pH 6.0, individual replicates (Fig 4a)",0.95 pmol oocyte-1 h-1 and 0.80 pmol oocyte-1 h-1 and 1.08 pmol oocyte-1 h-1
same,PfCRTDd2-mediated CQ transport activity,"10 µM CQ, time 0 min",0.00 pmol oocyte-1
same,PfCRTDd2-mediated CQ transport activity,"10 µM CQ, time 30 min",0.73 pmol oocyte-1
same,PfCRTDd2-mediated CQ transport activity,"10 µM CQ, time 60 min",1.10 pmol oocyte-1
same,PfCRTDd2-mediated CQ transport activity,"10 µM CQ, time 90 min",2.55 pmol oocyte-1
same,v-1 pH 4.5,10 µM CQ,2.08 (pmol oocyte-1 h-1)-1
same,v-1 pH 5.0,10 µM CQ,1.85 (pmol oocyte-1 h-1)-1
same,v-1 pH 5.5,10 µM CQ,1.45 (pmol oocyte-1 h-1)-1
same,v-1 pH 6.0,10 µM CQ,1.06 (pmol oocyte-1 h-1)-1
same,PfCRTDd2 transport activity 50 µM CQ pH 4.5,"50 µM CQ, pH 4.5, individual replicates (Fig 4a)",0.97 pmol oocyte-1 h-1 and 2.03 pmol oocyte-1 h-1 and 1.14 pmol oocyte-1 h-1 and 1.28 pmol oocyte-1 h-1
same,PfCRTDd2 transport activity 50 µM CQ pH 5.0,"50 µM CQ, pH 5.0, individual replicates (Fig 4a)",1.93 pmol oocyte-1 h-1 and 2.00 pmol oocyte-1 h-1 and 3.15 pmol oocyte-1 h-1 and 1.59 pmol oocyte-1 h-1 and 2.59 pmol oocyte-1 h-1 and 2.54 pmol oocyte-1 h-1 and 1.86 pmol oocyte-1 h-1 and 2.77 pmol oocyte-1 h-1 and 2.58 pmol oocyte-1 h-1 and 3.10 pmol oocyte-1 h-1
same,PfCRTDd2 transport activity 50 µM CQ pH 5.5,"50 µM CQ, pH 5.5, individual replicates (Fig 4a)",2.14 pmol oocyte-1 h-1 and 3.86 pmol oocyte-1 h-1 and 4.54 pmol oocyte-1 h-1 and 3.39 pmol oocyte-1 h-1 and 3.66 pmol oocyte-1 h-1 and 1.74 pmol oocyte-1 h-1 and 6.45 pmol oocyte-1 h-1 and 4.72 pmol oocyte-1 h-1 and 2.44 pmol oocyte-1 h-1 and 3.17 pmol oocyte-1 h-1 and 4.57 pmol oocyte-1 h-1 and 4.41 pmol oocyte-1 h-1 and 3.78 pmol oocyte-1 h-1
same,PfCRTDd2 transport activity 50 µM CQ pH 6.0,"50 µM CQ, pH 6.0, individual replicates (Fig 4a)",4.84 pmol oocyte-1 h-1 and 4.32 pmol oocyte-1 h-1 and 4.63 pmol oocyte-1 h-1
same,PfCRTDd2-mediated CQ transport activity,"50 µM CQ, time 0 min",0.00 pmol oocyte-1
same,PfCRTDd2-mediated CQ transport activity,"50 µM CQ, time 30 min",3.63 pmol oocyte-1
same,PfCRTDd2-mediated CQ transport activity,"50 µM CQ, time 60 min",5.55 pmol oocyte-1
same,PfCRTDd2-mediated CQ transport activity,"50 µM CQ, time 90 min",7.51 pmol oocyte-1
same,v-1 pH 4.5,50 µM CQ,0.52 (pmol oocyte-1 h-1)-1
same,v-1 pH 5.0,50 µM CQ,0.43 (pmol oocyte-1 h-1)-1
same,v-1 pH 5.5,50 µM CQ,0.27 (pmol oocyte-1 h-1)-1
same,v-1 pH 6.0,50 µM CQ,0.22 (pmol oocyte-1 h-1)-1
same,PfCRTDd2 transport activity,"100 µM CQ, pH 4.5, 60 min",5.17 pmol oocyte-1 h-1 and 4.60 pmol oocyte-1 h-1 and 5.99 pmol oocyte-1 h-1 and 5.32 pmol oocyte-1 h-1 and 4.77 pmol oocyte-1 h-1
same,PfCRTDd2 transport activity 100 µM CQ pH 4.5,"100 µM CQ, pH 4.5, individual replicates (Fig 4a)",4.60 pmol oocyte-1 h-1 and 5.99 pmol oocyte-1 h-1 and 5.32 pmol oocyte-1 h-1 and 4.77 pmol oocyte-1 h-1
same,PfCRTDd2 transport activity,"100 µM CQ, pH 5.0, 60 min",5.48 pmol oocyte-1 h-1
same,PfCRTDd2 transport activity 100 µM CQ pH 5.0,"100 µM CQ, pH 5.0, individual replicates (Fig 4a)",4.33 pmol oocyte-1 h-1 and 6.22 pmol oocyte-1 h-1 and 5.90 pmol oocyte-1 h-1
same,PfCRTDd2 transport activity,"100 µM CQ, pH 5.5, 60 min",7.61 pmol oocyte-1 h-1
same,PfCRTDd2 transport activity 100 µM CQ pH 5.5,"100 µM CQ, pH 5.5, individual replicates (Fig 4a)",6.37 pmol oocyte-1 h-1 and 9.40 pmol oocyte-1 h-1 and 7.07 pmol oocyte-1 h-1
same,PfCRTDd2 transport activity,"100 µM CQ, pH 6.0, 60 min",9.42 pmol oocyte-1 h-1 and 10.41 pmol oocyte-1 h-1 and 9.48 pmol oocyte-1 h-1 and 8.36 pmol oocyte-1 h-1
same,PfCRTDd2 transport activity 100 µM CQ pH 6.0,"100 µM CQ, pH 6.0, individual replicates (Fig 4a)",10.41 pmol oocyte-1 h-1 and 9.48 pmol oocyte-1 h-1 and 8.36 pmol oocyte-1 h-1
same,PfCRTDd2-mediated CQ transport activity,"100 µM CQ, time 0 min",0.00 pmol oocyte-1
same,PfCRTDd2-mediated CQ transport activity,"100 µM CQ, time 30 min",5.73 pmol oocyte-1
same,PfCRTDd2-mediated CQ transport activity,"100 µM CQ, time 60 min",8.29 pmol oocyte-1
same,PfCRTDd2-mediated CQ transport activity,"100 µM CQ, time 90 min",9.71 pmol oocyte-1
same,v-1 pH 4.5,100 µM CQ,0.19 (pmol oocyte-1 h-1)-1
same,v-1 pH 5.0,100 µM CQ,0.18 (pmol oocyte-1 h-1)-1
same,v-1 pH 5.5,100 µM CQ,0.13 (pmol oocyte-1 h-1)-1
same,v-1 pH 6.0,100 µM CQ,0.11 (pmol oocyte-1 h-1)-1
same,PfCRTDd2 transport activity,"200 µM CQ, pH 4.5, 60 min",7.21 pmol oocyte-1 h-1 and 7.32 pmol oocyte-1 h-1 and 8.24 pmol oocyte-1 h-1 and 6.30 pmol oocyte-1 h-1 and 7.78 pmol oocyte-1 h-1 and 6.41 pmol oocyte-1 h-1
same,PfCRTDd2 transport activity 200 µM CQ pH 4.5,"200 µM CQ, pH 4.5, individual replicates (Fig 4a)",7.32 pmol oocyte-1 h-1 and 8.24 pmol oocyte-1 h-1 and 6.30 pmol oocyte-1 h-1 and 7.78 pmol oocyte-1 h-1 and 6.41 pmol oocyte-1 h-1
same,PfCRTDd2 transport activity,"200 µM CQ, pH 5.0, 60 min",9.98 pmol oocyte-1 h-1
same,PfCRTDd2 transport activity 200 µM CQ pH 5.0,"200 µM CQ, pH 5.0, individual replicates (Fig 4a)",9.29 pmol oocyte-1 h-1 and 10.18 pmol oocyte-1 h-1 and 10.48 pmol oocyte-1 h-1
same,PfCRTDd2 transport activity,"200 µM CQ, pH 5.5, 60 min",10.75 pmol oocyte-1 h-1
same,PfCRTDd2 transport activity 200 µM CQ pH 5.5,"200 µM CQ, pH 5.5, individual replicates (Fig 4a)",11.07 pmol oocyte-1 h-1 and 10.25 pmol oocyte-1 h-1 and 11.13 pmol oocyte-1 h-1 and 10.55 pmol oocyte-1 h-1
same,PfCRTDd2 transport activity,"200 µM CQ, pH 6.0, 60 min",13.53 pmol oocyte-1 h-1 and 12.77 pmol oocyte-1 h-1 and 14.22 pmol oocyte-1 h-1 and 13.59 pmol oocyte-1 h-1
same,PfCRTDd2 transport activity 200 µM CQ pH 6.0,"200 µM CQ, pH 6.0, individual replicates (Fig 4a)",12.77 pmol oocyte-1 h-1 and 14.22 pmol oocyte-1 h-1 and 13.59 pmol oocyte-1 h-1
same,PfCRTDd2-mediated CQ transport activity,"200 µM CQ, time 0 min",0.00 pmol oocyte-1
same,PfCRTDd2-mediated CQ transport activity,"200 µM CQ, time 30 min",9.39 pmol oocyte-1
same,PfCRTDd2-mediated CQ transport activity,"200 µM CQ, time 60 min",15.25 pmol oocyte-1
same,PfCRTDd2-mediated CQ transport activity,"200 µM CQ, time 90 min",18.81 pmol oocyte-1
same,v-1 pH 4.5,200 µM CQ,0.14 (pmol oocyte-1 h-1)-1
same,v-1 pH 5.0,200 µM CQ,0.10 (pmol oocyte-1 h-1)-1
same,v-1 pH 5.5,200 µM CQ,0.09 (pmol oocyte-1 h-1)-1
same,v-1 pH 6.0,200 µM CQ,0.0739 (pmol oocyte-1 h-1)-1
same,PfCRTDd2 transport activity,"300 µM CQ, pH 4.5, 60 min",8.79 pmol oocyte-1 h-1 and 8.53 pmol oocyte-1 h-1 and 10.77 pmol oocyte-1 h-1 and 6.50 pmol oocyte-1 h-1 and 9.34 pmol oocyte-1 h-1
same,PfCRTDd2 transport activity 300 µM CQ pH 4.5,"300 µM CQ, pH 4.5, individual replicates (Fig 4a)",8.53 pmol oocyte-1 h-1 and 10.77 pmol oocyte-1 h-1 and 6.50 pmol oocyte-1 h-1 and 9.34 pmol oocyte-1 h-1
same,PfCRTDd2 transport activity,"300 µM CQ, pH 5.0, 60 min",10.68 pmol oocyte-1 h-1
same,PfCRTDd2 transport activity 300 µM CQ pH 5.0,"300 µM CQ, pH 5.0, individual replicates (Fig 4a)",10.67 pmol oocyte-1 h-1 and 9.04 pmol oocyte-1 h-1 and 12.33 pmol oocyte-1 h-1
same,PfCRTDd2 transport activity,"300 µM CQ, pH 5.5, 60 min",12.81 pmol oocyte-1 h-1
same,PfCRTDd2 transport activity 300 µM CQ pH 5.5,"300 µM CQ, pH 5.5, individual replicates (Fig 4a)",13.73 pmol oocyte-1 h-1 and 12.01 pmol oocyte-1 h-1 and 12.69 pmol oocyte-1 h-1
same,PfCRTDd2 transport activity,"300 µM CQ, pH 6.0, 60 min",15.42 pmol oocyte-1 h-1 and 15.31 pmol oocyte-1 h-1 and 16.86 pmol oocyte-1 h-1 and 14.10 pmol oocyte-1 h-1
same,PfCRTDd2 transport activity 300 µM CQ pH 6.0,"300 µM CQ, pH 6.0, individual replicates (Fig 4a)",15.31 pmol oocyte-1 h-1 and 16.86 pmol oocyte-1 h-1 and 14.10 pmol oocyte-1 h-1
same,PfCRTDd2-mediated CQ transport activity,"300 µM CQ, time 0 min",0.00 pmol oocyte-1
same,PfCRTDd2-mediated CQ transport activity,"300 µM CQ, time 30 min",9.78 pmol oocyte-1
same,PfCRTDd2-mediated CQ transport activity,"300 µM CQ, time 60 min",14.63 pmol oocyte-1
